For data set [1] the following is noted: cited from earlier work.
Data set [2] is described as follows: Solubility in reverse osmosis (RO) water at room temperature. Particulars: g per 100 g solvent. It is filed as physicochemical. As for the experimental part:
Hereinafter, unless specified otherwise the solubility of material is determined in reverse osmosis (RO) water at room temperature. Where the solubility is expressed as “%” it to be understood as number of grams of material soluble in 100 grams of solvent.

The conditions of data set [3]: at 50° C.; U.S. patent application Ser. No. 12/612,374; cited from earlier work.

Read-outs that look alike come from different tables or passages of the source.

In the case of `C=C1C[C@@]23CC[C@H]4[C@@](C)(CCC[C@@]4(C)C(=O)O[C@@H]4O[C@H](CO)[C@@H](O)[C@H](O)[C@H]4O)[C@@H]2CC[C@]1(O[C@@H]1O[C@H](CO)[C@@H](O)[C@H](O[C@@H]2O[C@H](CO)[C@@H](O)[C@H](O)[C@H]2O)[C@H]1O[C@@H]1O[C@H](CO)[C@@H](O)[C@H](O)[C@H]1O)C3` [Form 1, Rebaudioside A], the “solubility among Reb A polymorph forms” value in data set [1] (Prakash et al. 2008) is given as “lowest solubility”. For the same compound, the “Rate of dissolution in H2O at 25° C.” value in data set [1] (in 60 minutes) was “(<0.2% in”.

For the compound `C=C1C[C@@]23CC[C@H]4[C@@](C)(CCC[C@@]4(C)C(=O)O[C@@H]4O[C@H](CO)[C@@H](O)[C@H](O)[C@H]4O)[C@@H]2CC[C@]1(O[C@@H]1O[C@H](CO)[C@@H](O)[C@H](O[C@@H]2O[C@H](CO)[C@@H](O)[C@H](O)[C@H]2O)[C@H]1O[C@@H]1O[C@H](CO)[C@@H](O)[C@H](O)[C@H]1O)C3` [Form 2, Rebaudioside A], the “Rate of dissolution in H2O at 25° C.” value in data set [1] (in 5 minutes) is listed as “(<30% in 5”.

In turn, Rebaudioside B [Reb B] had a water solubility in data set [2] of 0.01%.

On to `C=C1C[C@@]23CC[C@H]4[C@@](C)(CCC[C@@]4(C)C(=O)O[C@@H]4O[C@H](CO)[C@@H](O)[C@H](O)[C@H]4O)[C@@H]2CC[C@]1(O[C@@H]1O[C@H](CO)[C@@H](O)[C@H](O[C@@H]2O[C@H](CO)[C@@H](O)[C@H](O)[C@H]2O)[C@H]1O[C@@H]1O[C@H](CO)[C@@H](O)[C@H](O)[C@H]1O)C3` [Reb A, Rebaudioside A], for which the values for the water solubility in data set [2] and in data set [2] (listed as rebaudioside A) were over 5% and 5.5%, respectively.

As to `C=C1C[C@@]23CC[C@H]4[C@@](C)(CCC[C@@]4(C)C(=O)O[C@@H]4O[C@H](CO)[C@@H](O)[C@H](O)[C@H]4O)[C@@H]2CC[C@]1(O[C@@H]1O[C@H](CO)[C@@H](O)[C@H](O[C@@H]2O[C@H](CO)[C@@H](O)[C@H](O)[C@H]2O)[C@H]1O[C@@H]1O[C@H](CO)[C@@H](O)[C@H](O)[C@H]1O)C3` [Form 3, Rebaudioside A], the “Rate of dissolution in H2O at 25° C.” value in data set [1] (in 5 minutes) was “High (>30%”.

Take `C=C1C[C@@]23CC[C@H]4[C@@](C)(CCC[C@@]4(C)C(=O)O[C@@H]4O[C@H](CO)[C@@H](O)[C@H](O)[C@H]4O)[C@@H]2CC[C@]1(O[C@@H]1O[C@H](CO)[C@@H](O)[C@H](O[C@@H]2O[C@H](CO)[C@@H](O)[C@H](O)[C@H]2O)[C@H]1O[C@@H]1O[C@H](CO)[C@@H](O)[C@H](O)[C@H]1O)C3` [Form 4, Rebaudioside A]: the “Rate of dissolution in H2O at 25° C.” value in data set [1] (in 5 minutes) is recorded as “High (>35%”.

As to `C=C1C[C@@]23CC[C@H]4[C@@](C)(CCC[C@@]4(C)C(=O)O[C@@H]4O[C@H](CO)[C@@H](O)[C@H](O)[C@H]4O[C@@H]4O[C@H](CO)[C@@H](O)[C@H](O)[C@H]4O)[C@@H]2CC[C@]1(O[C@@H]1O[C@H](CO)[C@@H](O)[C@H](O[C@@H]2O[C@H](CO)[C@@H](O)[C@H](O)[C@H]2O)[C@H]1O[C@@H]1O[C@H](CO)[C@@H](O)[C@H](O)[C@H]1O)C3` [anhydrous form of Reb D, Rebaudioside D, reference compound], the solubility entry in data set [3] is “about 0.15%”.

The values above are taken from US20140171520A1, “HIGHLY SOLUBLE STEVIA SWEETENER” (priority 2011, published 2014).
